Source: patent US8217071B2, “Use of inhibitors of the degradation of p27, in particular Argyrin and derivatives thereof, for the treatment of proliferative diseases” (Helmholtz Zentrum für Infektionsforschung GmbH, priority 2007, dated 2012)
≈ marks a conversion by molar mass, not a printed value. Numbered stars: 1 amine (or outer) side, 2 acyl side, 3 side chain; on linkers, the order of the positions; unused ones are H or OH. Square brackets hold non-standard residues; d marks the D form. Peptide text beside a SMILES is read from it. * marks the point of attachment. X1 = COc1cccc2[nH]c(C)c(C[C@H](N[*:1])C(=O)[*:2])c12; dAla(ψthiazole) = C[C@@H](N[*:1])c1nc(C(=O)[*:2])cs1; Trp(4-OMe) = COc1cccc2[nH]cc(C[CH](N)C(=O)O)c12; X2 = O=C(c1csc([C@@H](CO)N[*:1])n1)[*:2]; GlyΨ(Thz) = O=C(c1csc(CN[*:1])n1)[*:2]; dAbu = CC[C@@H](N)C(=O)O; Cbz = O=C(OCc1ccccc1)*; Dha = C=C(N)C(=O)O; Sar = CNCC(=O)O

Assays:
[1] = tested on: mouse embryonic fibroblasts from p27^kip1 wildtype mice; assay: Apoptosis (sub-G1 fraction) by flow cytometry in p27 wildtype MEF; format: cell-based; conditions: sub G1 fraction
Excerpt: (§1) Next the inventors tested whether the stabilization of p27 was indeed required for the apoptosis inducing function of Argyrin A or was merely a consequence of proteasome inhibition. For this the inventors treated immortalized mouse embryonic fibroblasts from p27^kip1 wildtype or knockout mice with Argyrin A or the proteasome inhibitor bortezomib and assayed cell cycle distribution and apoptosis by flow cytometry. […] These differences in sensitivity in response to Argyrin A treatment were not due to differences in the accumulation of other proteasomal substrates in p27 wildtype and knockout cells as p53 and p21 levels increased in both cell lines in response to Argyrin A (FIG. 6B). To extend this observation to human cancer cells the inventors reduced the levels of p27^kip1 in HeLa cells using p27^kip1 specific siRNA.
(§2) The results shown are the average numbers for six independent experiments. b+d) Wildtype (b) and p27 knockout (d) MEF were treated with Argyrin A or transfected with siRNAs specific for the β1, β2 or β5 subunit of the proteasome for 24 hours. The graphs show the remaining catalytic activity of the different proteasome subunits after Argyrin A or siRNA treatment compared to an untreated control (n=3). The western blots show the expression of the β1, β2 or β5 subunit of the proteasome in proliferating cells and after treatment with siRNAs for a representative experiment. c+e) Flow cytometric measurements of the number of apoptotic cells (sub-G1 fraction) after Argyrin A or siRNA treatment in wildtype (c) or p27 knockout (E) MEF. f) HeLa cells were treated with Argyrin A or siRNA against p27 or Argyrin A and siRNA against p27 for either 24 or 48 hours.
(§3) MTT assays were done as previously described (Sasse, F. et al. Argyrins, immunosuppressive cyclic peptides from myxobacteria. I. Production, isolation, physico-chemical and biological properties. J Antibiot (Tokyo) 55, 543-51 (2002)). TUNEL staining of tissue sections was performed on 10 micrometer sections which were deparafinised and treated as recommended by the manufacturer. (In Situ Cell Death Detection Kit, Fluorescein; ROCHE, Cat #11 684 795 910). Flow cytometric analysis of cultured cells was done using a Becton Dickinson fluorescence cytometer as previously described (Malek, N. P. et al. A mouse knock-in model exposes sequential proteolytic pathways that regulate p27^Kip1 in G1 and S phase. Nature 413, 323-7 (2001)). Analysis of the distribution of cells in the cell cycle and the sub-G1 fraction was done using Cell Quest software. A histone-associated-DNA-fragments ELISA was used to determine the number of apoptotic cells according to manufacturers instructions (Roche #11 774425001).

[2] = tested on: mouse embryonic fibroblasts from p27^kip1 knockout mice; assay: Apoptosis (sub-G1 fraction) by flow cytometry in p27 knockout MEF; format: cell-based; conditions: sub G1 fraction
Excerpt: as §1, §2, §3

[3] = tested on: p27-GFP (clone H15GFP-p27, HeLa-cell line; cervix-carcinoma); assay: GFP-fluorescence per FACS in clone H15GFP-p27; format: cell-based, human; conditions: GFP-fluorescence per FACS after 24 h incubation, 500 ng/ml
Excerpt: Human p27cDNA (in plasmid vector CS2+) was digested with EcoR1 and BamH1, and the resulting fragment was ligated after gel purification into the vector pEGFP-N1 (Clontech) that was cut with the same restriction enzymes. Thus, a […] fusion with the GFP as contained in the pEGFP-vector was generated. The plasmid was then transfected into Hela cells, and, following selection of the cells with kanamycin, cellular clones were isolated which had the plasmid integrated stably into their chromosome. The expression of the p27EGFP proteins was confirmed using Western blots and immune precipitations for both p27 and GFP.
(§4) The following table summarizes the effects of argyrin-derivatives A to H on two cancer cell lines, H15 (cervix carcinoma) and SW-480 (colon cancer). In order to test the efficacy, a p27-GFP-clone was used.

[4] = tested on: H15 (cervix carcinoma); assay: MIC (visual), serial dilution, H15; format: cell-based, human; conditions: minimal concentration of a serial dilution exhibiting a visual effect
Excerpt: as §4

[5] = tested on: SW-480 (colon cancer); assay: MIC (visual), serial dilution, SW-480; format: cell-based, human; conditions: minimal concentration of a serial dilution exhibiting a visual effect
Excerpt: as §4

[6] = tested on: SW-480 (colon cancer cell line); assay: MTT-test proliferation of SW-480; format: cell-based, human; conditions: for IC-50 SW-480: half-maximal inhibition of proliferation
Method: as §3

IC50 ([6]; Homo sapiens, SW480, half-maximal inhibition of proliferation, read-out: IC-50 SW-480) [µg/mL] | Structure (SMILES) | apoptosis in p27 wildtype MEF [1] | apoptosis in p27 knockout MEF [2] | Mean of FSC-H (Log) H15 p27-GFP-clone [3] | MIC (visual) H15 [4] [µg/mL] | MIC (visual) SW-480 [5] [µg/mL] | IC-50 SW-480 [6]
– | CC(C)C[C@@H](C=O)NC(=O)[C@H](CC(C)C)NC(=O)[C@H](CC(C)C)NC(=O)OCc1ccccc1 [MG132] (Cbz-Leu-Leu-Leu-aldehyde) | same response | same response | – | – | – | –
– | C=C1NC(=O)[C@@H](CC)NC(=O)CNC(=O)[C@H](Cc2c(C)[nH]c3cccc(OC)c23)NC(=O)[C@H](Cc2c[nH]c3ccccc23)NC(=O)c2csc(n2)[C@@H](C)NC(=O)CN(C)C1=O [Argyrin D] (cyclo(W[X1]G[dAbu][Dha][Sar][dAla(ψthiazole)])) | – | – | 7.69 | 12 (≈ 14.1 µM) | 37 (≈ 43.4 µM) | Ca. 0.05 μg/ml
~0.05 (≈ 0.0596 µM) | C=C1NC(=O)[C@@H](CC)NC(=O)CNC(=O)[C@H](Cc2c[nH]c3cccc(OC)c23)NC(=O)[C@H](Cc2c[nH]c3ccccc23)NC(=O)c2csc(n2)[C@@H](C)NC(=O)CN(C)C1=O [Argyrin B, argyrin B] (cyclo([Dha][Sar][dAla(ψthiazole)]W[Trp(4-OMe)]G[dAbu])) | – | – | 7.60 | 12 (≈ 14.3 µM) | 12 (≈ 14.3 µM) | –
– | C=C1NC(=O)[C@@H](C)NC(=O)CNC(=O)[C@H](Cc2c(C)[nH]c3cccc(OC)c23)NC(=O)[C@H](Cc2c[nH]c3ccccc23)NC(=O)c2csc(n2)[C@@H](C)NC(=O)CN(C)C1=O [Argyrin C] (cyclo(W[X1]G[dA][Dha][Sar][dAla(ψthiazole)])) | – | – | 7.36 | 37 (≈ 44.1 µM) | 37 (≈ 44.1 µM) | Ca. 0.05 μg/ml
– | C=C1NC(=O)[C@@H](C)NC(=O)CNC(=O)[C@H](Cc2c[nH]c3cccc(OC)c23)NC(=O)[C@H](Cc2c[nH]c3ccccc23)NC(=O)c2csc(n2)[C@@H](CO)NC(=O)CN(C)C1=O [Argyrin F, argyrin F] (cyclo([Dha][Sar][X2]W[Trp(4-OMe)]G[dA])) | – | – | 11.24 | 0.5 (≈ 0.595 µM) | 0.2 (≈ 0.238 µM) | 0.05 µg/mL
– | C=C1NC(=O)C(C)NC(=O)CNC(=O)C(Cc2c[nH]c3cccc(OC)c23)NC(=O)C(Cc2c[nH]c3ccccc23)NC(=O)c2csc(n2)CNC(=O)CN(C)C1=O (stereo not drawn) [Argyrin H] (cyclo([Dha][Sar][GlyΨ(Thz)]W[Trp(4-OMe)]GA); configuration not given here) | – | – | – | 37 (≈ 45.6 µM) | 37 (≈ 45.6 µM) | Ca. 0.5 μg/ml
